Assay results reported in patent publication US20130040882A1, “USE OF FIBROBLAST GROWTH FACTOR FRAGMENTS” (NOVARTIS AG, priority 2003, published 2013).
Where “and” joins values, the source holds several entries; their conditions need not be identical. Identical values can stand only once.

What was measured:
[1] = Salmon calcitonin/PTS893 monkey study: in vivo examinations (mortality, food consumption, clinical observations, body weight); parameters: species or system cynomolgus monkeys (Macaca fascicularis)
Procedure: Solvent was used as vehicle for the control group.
The animals used in this analysis were cynomolgus monkeys (Macaca fascicularis), supplied by Centre de Recherches Primatologiques, Port Louis, Mauritius. Two animals were used per group and sex. […] Animals were examined daily for mortality, food consumption and clinical observations. Body weight was recorded once per week.
In vivo examinations. No significant histopathological changes were observed.

[2] = Salmon calcitonin/PTS893 monkey study: haematology; assay type: in vivo, cynomolgus monkeys (Macaca fascicularis);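 further: haematology parameters were measured in blood collected from a peripheral vein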
Procedure: Animals were fasted overnight before blood collection but had free access to water. Blood samples were taken from a peripheral vein. Standard haematology and clinical chemistry analysis were performed once during pretest and at the end of the treatment period. Blood samples were collected from each animal at the same intervals as described for the clinical chemistry investigations. The serum samples were deep-frozen (approximately −80° C.) until analyses for hormone determination.

[3] = Salmon calcitonin/PTS893 monkey study: histopathology incl. osteonectin, osteopontin and osteocalcin staining of bone; assay type: in vivo, cynomolgus monkeys (Macaca fascicularis); settings: females
Procedure: Animals were killed by deep anaesthesia induced by intravenous injection of Pentothal®, followed by exsanguinations. All relevant tissues were sampled for histopathology and gene expression profiling. The following tissue samples were processed for analysis: liver, kidney, pituitary, muscle, bone, duodenum, spleen and trachea. Samples for histopathology were fixed in phosphate-buffered 10% formalin. Bone demineralization was performed with 10% formic acid. Tissue samples were embedded in Paraplast® and sectioned at 4 microns, for staining with haematoxylin and eosin. […] All selected tissues for gene expression profiling were examined histopathologically.
Bone sections were stained for osteonectin, osteopontin and osteocalcin and were evaluated histopathologically. Histomorphometry of the bone tissue was performed regarding parameters for bone resorption and synthesis (osteoid formation).

[4] = Salmon calcitonin/PTS893 monkey study: urinalysis; settings: urine
[5] = female monkeys, day 13 of dosing
[6] = female monkeys, day −8 relative to start of dosing
[7] = male monkeys, day −6 relative to start of dosing

CC(C)C[C@H](NC(=O)[C@H](CCCCN)NC(=O)CNC(=O)[C@H](CC(C)C)NC(=O)[C@@H](NC(=O)[C@@H]1CSSC[C@H](N)C(=O)N[C@@H](CO)C(=O)N[C@@H](CC(N)=O)C(=O)N[C@@H](CC(C)C)C(=O)N[C@@H](CO)C(=O)N[C@@H]([C@@H](C)O)C(=O)N1)C(C)C)C(=O)N[C@@H](CO)C(=O)N[C@@H](CCC(N)=O)C(=O)N[C@@H](CCC(=O)O)C(=O)N[C@@H](CC(C)C)C(=O)N[C@@H](Cc1c[nH]cn1)C(=O)N[C@@H](CCCCN)C(=O)N[C@@H](CC(C)C)C(=O)N[C@@H](CCC(N)=O)C(=O)N[C@H](C(=O)N[C@@H](Cc1ccc(O)cc1)C(=O)N1CCC[C@H]1C(=O)N[C@@H](CCCNC(=N)N)C(=O)N[C@H](C(=O)N[C@@H](CC(N)=O)C(=O)N[C@H](C(=O)NCC(=O)N[C@@H](CO)C(=O)NCC(=O)N[C@H](C(=O)N1CCC[C@H]1C(N)=O)[C@@H](C)O)[C@@H](C)O)[C@@H](C)O)[C@@H](C)O [salmon calcitonin]
Food consumption ([1]; 50 μg/animal/day sc, two weeks): decrease | Signs of toxicity ([1]; 50 μg/animal/day sc, two weeks): no signs of toxicity | Food Consumption, Avg., Both animals ([1]; males, average of both animals of the group): 72.9 | Food Consumption, Avg. ([1]; males, average per individual animal): 70.8 and 75.0 | Food Consumption, Day 1 ([1]; males, day 1 of SC dosing, individual animals): 75 and 50 | Food Consumption, Day 2 ([1]; males, day 2 of SC dosing, individual animals): 25 | Food Consumption, Day 3 ([1]; males, day 3 of SC dosing, individual animals): 50 and 100 | Food Consumption, Day 4 ([1]; males, day 4 of SC dosing, individual animals): 100 and 75 | Food Consumption, Day 5 ([1]; males, day 5 of SC dosing, individual animals): 100 | Food Consumption, Day 6 ([1]; males, day 6 of SC dosing, individual animals): 75 | Food Consumption, Day 7 ([1]; males, day 7 of SC dosing, individual animals): 100 and 75 | Food Consumption, Day 8 ([1]; males, day 8 of SC dosing, individual animals): 100 and 75 | Food Consumption, Day 9 ([1]; males, day 9 of SC dosing, individual animals): 100 | Food Consumption, Day 10 ([1]; males, day 10 of SC dosing, individual animals): 100 | Food Consumption, Day 11 ([1]; males, day 11 of SC dosing, individual animals): 75 and 100 | Food Consumption, Day 12 ([1]; males, day 12 of SC dosing, individual animals): 75 | Food Consumption, Day 13 ([1]; males, day 13 of SC dosing, individual animals): 25 | Food Consumption, Day 14 ([1]; males, day 14 of SC dosing, individual animals): 75 | Food Consumption, Day −1 ([1]; males, day −1 (before dosing), individual animals): 75 | Food Consumption, Day −2 ([1]; males, day −2 (before dosing), individual animals): 100 | Food Consumption, Day −3 ([1]; males, day −3 (before dosing), individual animals): 75 | Food Consumption, Day −4 ([1]; males, day −4 (before dosing), individual animals): 50 and 75 | Food Consumption, Day −5 ([1]; males, day −5 (before dosing), individual animals): 75 | Food Consumption, Day −6 ([1]; males, day −6 (before dosing), individual animals): 50 | Haematology L ([2]; females, d7): 4.61 pg/ml and 6.21 pg/ml | Haematology M ([2]; females, d7): 0.63 nmol/l and 0.82 nmol/l | Haematology MCH ([2]; females, d7): 18.6 ng/ml and 19.4 ng/ml | Haematology MCHC ([2]; females, d7): 29.0 pg/ml and 28.7 pg/ml | Haematology PCV ([2]; females, d7): 0.40 mU/l and 0.44 mU/l | Haematology PLAT ([2]; females, d7): 594 nmol/l and 356 nmol/l | Haematology RBC ([2]; females, d7): 6.2 nmol/l and 6.6 nmol/l | Haematology M ([2]; females, d13): 0.69 nmol/l and 0.39 nmol/l | Haematology MCH ([2]; females, d13): 19.5 ng/ml | Haematology MCHC ([2]; females, d13): 30.3 pg/ml and 29.9 pg/ml | Haematology N ([2]; females, d13): 5.41 nmol/l and 6.16 nmol/l | Haematology PCV ([2]; females, d13): 0.33 mU/l and 0.37 mU/l | Haematology PLAT ([2]; females, d13): 451 nmol/l and 229 nmol/l | Haematology RBC ([2]; females, d13): 5.2 nmol/l and 5.7 nmol/l | Haematology E ([2]; females, d−8 (before dosing)): 0.03 mUI/l | Haematology L ([2]; females, d−8 (before dosing)): 3.26 pg/ml and 4.79 pg/ml | Haematology M ([2]; females, d−8 (before dosing)): 0.25 nmol/l and 0.30 nmol/l | Haematology MCH ([2]; females, d−8 (before dosing)): 19.1 ng/ml and 19.8 ng/ml | Haematology MCHC ([2]; females, d−8 (before dosing)): 31.2 pg/ml and 30.6 pg/ml | Haematology N ([2]; females, d−8 (before dosing)): 3.45 nmol/l and 3.13 nmol/l | Haematology PCV ([2]; females, d−8 (before dosing)): 0.40 mU/l and 0.45 mU/l | Haematology PLAT ([2]; females, d−8 (before dosing)): 549 nmol/l and 304 nmol/l | Haematology RBC ([2]; females, d−8 (before dosing)): 6.5 nmol/l and 7.0 nmol/l | Haematology B ([2]; males, d7): 0.04 G/l | Haematology E ([2]; males, d7): 0.10 G/l and 0.09 G/l | Haematology HB ([2]; males, d7): 11.7 g/dl and 11.5 g/dl | Haematology L ([2]; males, d7): 6.79 G/l and 5.57 G/l | Haematology M ([2]; males, d7): 0.73 G/l and 0.45 G/l | Haematology MCH ([2]; males, d7): 19.9 pg and 19.2 pg | Haematology MCHC ([2]; males, d7): 30.3 g/dl and 31.3 g/dl | Haematology MCV ([2]; males, d7): 66 fl and 62 fl | Haematology N ([2]; males, d7): 4.11 G/l and 3.31 G/l | Haematology PCV ([2]; males, d7): 0.39 l/l and 0.37 l/l | Haematology PLAT ([2]; males, d7): 396 G/l and 330 G/l | Haematology RBC ([2]; males, d7): 5.9 T/l and 6.0 T/l | Haematology WBC ([2]; males, d7): 11.8 G/l and 9.5 G/l | Haematology B ([2]; males, d13): 0.03 G/l | Haematology HB ([2]; males, d13): 11.2 g/dl and 10.3 g/dl | Haematology L ([2]; males, d13): 5.38 G/l and 4.92 G/l | Haematology M ([2]; males, d13): 0.57 G/l and 0.76 G/l | Haematology MCH ([2]; males, d13): 20.2 pg and 19.2 pg | Haematology MCHC ([2]; males, d13): 29.0 g/dl and 28.7 g/dl | Haematology MCV ([2]; males, d13): 70 fl and 67 fl | Haematology N ([2]; males, d13): 1.90 G/l and 3.04 G/l | Haematology PCV ([2]; males, d13): 0.39 l/l and 0.36 l/l | Haematology PLAT ([2]; males, d13): 302 G/l and 389 G/l | Haematology RBC ([2]; males, d13): 5.6 T/l and 5.4 T/l | Haematology WBC ([2]; males, d13): 8.0 G/l and 8.8 G/l | Haematology HB ([2]; males, d−6 (before dosing)): 12.6 g/dl and 13.6 g/dl | Haematology L ([2]; males, d−6 (before dosing)): 4.00 G/l and 6.55 G/l | Haematology MCH ([2]; males, d−6 (before dosing)): 20.2 pg and 19.7 pg | Haematology MCHC ([2]; males, d−6 (before dosing)): 31.4 g/dl and 32.0 g/dl | Haematology MCV ([2]; males, d−6 (before dosing)): 64 fl and 62 fl | Haematology N ([2]; males, d−6 (before dosing)): 3.36 G/l and 3.93 G/l | Haematology PCV ([2]; males, d−6 (before dosing)): 0.40 l/l and 0.43 l/l | Haematology PLAT ([2]; males, d−6 (before dosing)): 351 G/l and 247 G/l | Haematology RBC ([2]; males, d−6 (before dosing)): 6.3 T/l and 6.9 T/l | Haematology WBC ([2]; males, d−6 (before dosing)): 7.7 G/l and 11.5 G/l | Inflammatory and regenerative changes in the kidneys [3]: slightly higher incidence | CREAT [4, 5]: 4800 µmol/L and 4200 µmol/L | Ca2+ [4, 5]: 17.55 mmol/L and 12.70 mmol/L | Cl− [4, 5]: 63 mmol/L and 65 mmol/L | I.PHOS [4, 5]: 5.1 mmol/L and 5.8 mmol/L | K+ [4, 5]: 53 mmol/L and 57 mmol/L | Mg2+ [4, 5]: 5.40 mmol/L and 4.85 mmol/L | NAG [4, 5]: 2.8 IU/l and 2.7 IU/l | Na+ [4, 5]: 40 mmol/L and 32 mmol/L | VOLUME [4, 5]: 67 mL and 49 mL | CREAT ([4]; female monkeys, day −7 relative to start of dosing): 6920 µmol/L and 13380 µmol/L | CREAT [4, 6]: 10780 µmol/L and 11260 µmol/L | Ca2+ [4, 6]: 3.00 mmol/L and 3.50 mmol/L | K+ [4, 6]: 104 mmol/L and 172 mmol/L | Mg2+ [4, 6]: 3.35 mmol/L and 3.80 mmol/L | Na+ [4, 6]: 98 mmol/L and 156 mmol/L | CREAT ([4]; male monkeys, day 13 of dosing): 4620 µmol/L and 4400 µmol/L | Ca2+ ([4]; male monkeys, day 13 of dosing): 18.25 mmol/L and 23.40 mmol/L | Cl− ([4]; male monkeys, day 13 of dosing): 55 mmol/L and 68 mmol/L | I.PHOS ([4]; male monkeys, day 13 of dosing): 2.50 mmol/L and 3.00 mmol/L | K+ ([4]; male monkeys, day 13 of dosing): 78 mmol/L and 76 mmol/L | Mg2+ ([4]; male monkeys, day 13 of dosing): 7.05 mmol/L and 9.80 mmol/L | Na+ ([4]; male monkeys, day 13 of dosing): 14 mmol/L and 15 mmol/L | VOLUME ([4]; male monkeys, day 13 of dosing): 68 mL and 54 mL | I.PHOS [4, 7]: 4.35 mmol/L and 5.33 mmol/L | LDH [4, 7]: 9.0 IU/L and 13.0 IU/L | NAG [4, 7]: 2.7 IU/l and 4.2 IU/l | VOLUME [4, 7]: 62 mL and 37 mL
